Key:
Type in all cases: in vivo
[1] = system: southern crabgrass (Digitaria ciliaris); assay: Soil treatment test for upland field (Test Example 2): southern crabgrass; conditions: soil treatment before germination, examined after 3 weeks
Source text: (§1) Evaluation of the herbicidal effect is shown in the following six grades, by comparing the condition of untreated control and growth inhibition (%): • 0: 0%-less than 20% • 1: 20%-less than 40% • 2: 40%-less than 60% • 3: 60%-less than 80% • 4: 80%-less than 100% • 5: 100%.
(§2) Upland field soil was filled in 1/3,000 are pots, seeded with southern crabgrass (Digitaria ciliaris), common lambsquaters (Chenopodium album), slender amaranth (Amaranthus viridis), common purslane (Portulaca oleracea), velvetleaf (Abutilon theophrasti), wheat, corn and soybean. The seeds were covered up with the soil.
(§3) Wettable powders containing the object compounds (1) as identified in Table 1, which were formulated following Preparation Example 2, were diluted with adequate amount of water to secure the prescribed dose of the active ingredient, and uniformly sprayed onto the surface soil layer after the seeding and before germination of the weeds, at an application water of 15 liters per are.
(§4) After placing the test pots in a glasshouse which was kept at an average temperature of 25° C. for 3 weeks, the herbicidal effect was examined.
(§5) Evaluations of the herbicidal effect and phytotoxicity were made in the manner similar to those in the above Test Example 1.

[2] = system: common lambsquaters (Chenopodium album); assay: Soil treatment test for upland field (Test Example 2): common lambsquaters; conditions: soil treatment before germination, examined after 3 weeks
Source text: as §1, §2, §3, §4, §5

[3] = system: slender amaranth (Amaranthus viridis); assay: Soil treatment test for upland field (Test Example 2): slender amaranth; conditions: soil treatment before germination, examined after 3 weeks
Source text: as §1, §2, §3, §4, §5

[4] = system: common purslane (Portulaca oleracea); assay: Soil treatment test for upland field (Test Example 2): common purslane; conditions: soil treatment before germination, examined after 3 weeks
Source text: as §1, §2, §3, §4, §5

[5] = system: velvetleaf (Abutilon theophrasti); assay: Soil treatment test for upland field (Test Example 2): velvetleaf; conditions: soil treatment before germination, examined after 3 weeks
Source text: as §1, §2, §3, §4, §5

wheat [6] = assay: Soil treatment test for upland field (Test Example 2): phytotoxicity to wheat; conditions: soil treatment before germination, examined after 3 weeks
Source text: (§6) Evaluation of phytotoxicity is shown in the following six grades, as compared with the condition of untreated control: • 0: normal growth • 1: little damaged • 2: low damaged • 3: medium damaged • 4: serious damaged • 5: complete killed.
as §2, §4

corn [7] = assay: Soil treatment test for upland field (Test Example 2): phytotoxicity to corn; conditions: soil treatment before germination, examined after 3 weeks
Source text: as §6, §2, §4

soybean [8] = assay: Soil treatment test for upland field (Test Example 2): phytotoxicity to soybean; conditions: soil treatment before germination, examined after 3 weeks
Source text: as §6, §2, §4

southern crabgrass = assay: Foliage treatment test for upland field (Test Example 3): southern crabgrass; conditions: foliage treatment at 1.0-2.0 leaf stage of southern crabgrass, examined after 3 weeks
Source text: as §1
(§7) Compost mixed soil was filled in 1/3,000 are pots, seeded with southern crabgrass, common lambsquaters, slender amaranth, common purslane, velvetleaf, wheat, corn and soybean. The seeds were covered up with the soil and cultured in a glasshouse kept at 25° C. on the average.
(§8) Wettable powders containing the object compounds (1) as identified in Table 1, which were formulated following Preparation Example 2, were diluted with water to the prescribed dose of the active ingredient, and uniformly sprayed onto the weeds at 1.0-2.0 leaf stage of the southern crabgrass at an application water of 15 liters per are.
(§9) After placing the test pots in a grasshouse kept at 25° C. on the average for 3 weeks, the herbicidal effect was examined.
(§10) Evaluation of the herbicidal effect was conducted in the similar manner to Test Example 1.

common lambsquaters = assay: Foliage treatment test for upland field (Test Example 3): common lambsquaters; conditions: foliage treatment at 1.0-2.0 leaf stage of southern crabgrass, examined after 3 weeks
Source text: as §1, §7, §8, §9, §10

slender amaranth = assay: Foliage treatment test for upland field (Test Example 3): slender amaranth; conditions: foliage treatment at 1.0-2.0 leaf stage of southern crabgrass, examined after 3 weeks
Source text: as §1, §7, §8, §9, §10

common purslane = assay: Foliage treatment test for upland field (Test Example 3): common purslane; conditions: foliage treatment at 1.0-2.0 leaf stage of southern crabgrass, examined after 3 weeks
Source text: as §1, §7, §8, §9, §10

velvetleaf = assay: Foliage treatment test for upland field (Test Example 3): velvetleaf; conditions: foliage treatment at 1.0-2.0 leaf stage of southern crabgrass, examined after 3 weeks
Source text: as §1, §7, §8, §9, §10

wheat [9] = assay: Foliage treatment test for upland field (Test Example 3): phytotoxicity to wheat; conditions: foliage treatment at 1.0-2.0 leaf stage of southern crabgrass, examined after 3 weeks
Method: as §6, §7, §9

corn [10] = assay: Foliage treatment test for upland field (Test Example 3): phytotoxicity to corn; conditions: foliage treatment at 1.0-2.0 leaf stage of southern crabgrass, examined after 3 weeks
Method: as §6, §7, §9

soybean [11] = assay: Foliage treatment test for upland field (Test Example 3): phytotoxicity to soybean; conditions: foliage treatment at 1.0-2.0 leaf stage of southern crabgrass, examined after 3 weeks
Method: as §6, §7, §9

Structure (SMILES)	Herbicidal Effect southern crabgrass ([1]; dose 2.5 g ai/a)	Herbicidal Effect southern crabgrass ([1]; dose 5 g ai/a)	Herbicidal Effect common lambsquaters ([2]; dose 2.5 g ai/a)	Herbicidal Effect common lambsquaters ([2]; dose 5 g ai/a)	Herbicidal Effect slender amaranth ([3]; dose 2.5 g ai/a)	Herbicidal Effect slender amaranth ([3]; dose 5 g ai/a)	Herbicidal Effect common purslane ([4]; dose 2.5 g ai/a)	Herbicidal Effect common purslane ([4]; dose 5 g ai/a)	Herbicidal Effect velvetleaf ([5]; dose 2.5 g ai/a)	Herbicidal Effect velvetleaf ([5]; dose 5 g ai/a)	Phytotoxicity wheat (wheat [6]; dose 2.5 g ai/a)	Phytotoxicity wheat (wheat [6]; dose 5 g ai/a)	Phytotoxicity corn (corn [7]; dose 2.5 g ai/a)	Phytotoxicity corn (corn [7]; dose 5 g ai/a)	Phytotoxicity soybean (soybean [8]; dose 2.5 g ai/a)	Phytotoxicity soybean (soybean [8]; dose 5 g ai/a)	Herbicidal Effect southern crabgrass (southern crabgrass; dose 2.5 g ai/a)	Herbicidal Effect southern crabgrass (southern crabgrass; dose 5 g ai/a)	Herbicidal Effect Common lambsquatters (common lambsquaters; dose 2.5 g ai/a)	Herbicidal Effect Common lambsquatters (common lambsquaters; dose 5 g ai/a)	further results
COCC(=Cc1cccc(C(F)(F)F)c1)c1nc2cc(OC(F)(F)F)ccc2o1 [Compound 46]	4 (80%-less than 100%)	5 (100%)	5 (100%)	5 (100%)	5 (100%)	5 (100%)	5 (100%)	5 (100%)	4 (80%-less than 100%)	5 (100%)	0	0	0	1	0	1	4 (80%-less than 100%)	5 (100%)	5 (100%)	5 (100%)	Herbicidal Effect slender amaranth (slender amaranth; dose 2.5 g ai/a): 5 (100%); Herbicidal Effect slender amaranth (slender amaranth; dose 5 g ai/a): 5 (100%); Herbicidal Effect common purslane (common purslane; dose 2.5 g ai/a): 5 (100%); Herbicidal Effect common purslane (common purslane; dose 5 g ai/a): 5 (100%); Herbicidal Effect velvetleaf (velvetleaf; dose 2.5 g ai/a): 4 (80%-less than 100%); Herbicidal Effect velvetleaf (velvetleaf; dose 5 g ai/a): 5 (100%); Phytotoxicity wheat (wheat [9]; dose 2.5 g ai/a): 0; Phytotoxicity wheat (wheat [9]; dose 5 g ai/a): 1; Phytotoxicity corn (corn [10]; dose 2.5 g ai/a): 0; Phytotoxicity corn (corn [10]; dose 5 g ai/a): 1; Phytotoxicity soybean (soybean [11]; dose 2.5 g ai/a): 1; Phytotoxicity soybean (soybean [11]; dose 5 g ai/a): 1
FC(F)C(F)(F)COCC(=Cc1cccc(C(F)(F)F)c1)c1nc2cc(C(F)(F)F)ccc2o1 [Compound 87]	4 (80%-less than 100%)	5 (100%)	5 (100%)	5 (100%)	5 (100%)	5 (100%)	5 (100%)	5 (100%)	4 (80%-less than 100%)	5 (100%)	0	1	0	0	0	1	4 (80%-less than 100%)	5 (100%)	5 (100%)	5 (100%)	Herbicidal Effect slender amaranth (slender amaranth; dose 2.5 g ai/a): 5 (100%); Herbicidal Effect slender amaranth (slender amaranth; dose 5 g ai/a): 5 (100%); Herbicidal Effect common purslane (common purslane; dose 2.5 g ai/a): 5 (100%); Herbicidal Effect common purslane (common purslane; dose 5 g ai/a): 5 (100%); Herbicidal Effect velvetleaf (velvetleaf; dose 2.5 g ai/a): 4 (80%-less than 100%); Herbicidal Effect velvetleaf (velvetleaf; dose 5 g ai/a): 5 (100%); Phytotoxicity wheat (wheat [9]; dose 2.5 g ai/a): 0; Phytotoxicity wheat (wheat [9]; dose 5 g ai/a): 1; Phytotoxicity corn (corn [10]; dose 2.5 g ai/a): 0; Phytotoxicity corn (corn [10]; dose 5 g ai/a): 1; Phytotoxicity soybean (soybean [11]; dose 2.5 g ai/a): 1; Phytotoxicity soybean (soybean [11]; dose 5 g ai/a): 1

From patent publication US20080058213A1, “Benzoxazole Compounds” (priority 2004, published 2008)
